Data published in patent US12503438B2, “Compounds for the treatment of kinase-dependent disorders” (Exelixis, Inc., priority 2019, dated 2025).

Key:
Human Axl = biological target: T1, Human Axl (Homo sapiens, UniProt P30530, Q764R); assay: Human AXL kinase assay (33P-phosphoryl transfer radiometric, KinaseProfiler); conditions: biochemical activity; 10 μM ATP
T1 construct: Human Axl (residues H473-A894 with Q764R, 161 nM); purchased Eurofins Pharma Discovery Services UK Limited (KinaseProfiler service)
T1 sequence (P30530 473-894 Q764R): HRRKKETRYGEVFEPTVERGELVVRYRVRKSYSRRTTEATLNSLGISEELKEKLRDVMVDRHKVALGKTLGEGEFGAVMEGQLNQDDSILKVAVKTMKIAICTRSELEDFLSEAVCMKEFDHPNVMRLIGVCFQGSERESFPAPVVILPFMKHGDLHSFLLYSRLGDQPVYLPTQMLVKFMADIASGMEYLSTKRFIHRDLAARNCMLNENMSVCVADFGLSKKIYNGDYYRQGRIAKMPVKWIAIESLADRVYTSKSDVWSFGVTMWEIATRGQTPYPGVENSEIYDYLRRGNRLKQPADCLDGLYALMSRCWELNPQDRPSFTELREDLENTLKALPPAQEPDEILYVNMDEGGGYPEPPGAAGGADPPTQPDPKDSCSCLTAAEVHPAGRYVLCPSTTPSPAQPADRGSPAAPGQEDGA
Description: Kinase activity and compound inhibition were investigated using the ^33P-Phosphoryl transfer radiometric kinase assay, performed using the KinaseProfiler™ service of Eurofins Pharma Discovery Services UK Limited. Dose-response experiments were performed using nine compound concentrations in a 96-well microtiter plate. For each assay, all compounds were prepared to a 50× final assay concentration (50 μM) in 100% DMSO, then diluted in a half-log series, with the final top concentration at 1 μM. This working stock of the compound was added to the assay well as the first component in the reaction, followed by the remaining components as detailed in the following assay protocols below. The positive control wells (100% kinase activity) contain all components of the reaction including 2% DMSO (control for solvent effects), except the compound of interest. Blank wells contain all components of the reaction, with the reference inhibitor, staurosporine. This reference compound was used to abolish kinase activity and generated the 0% kinase activity base-line. IC50 values were calculated by nonlinear regression analysis using the sigmoidal dose-response (variable slope) curve fit on XLFit version 5.3 (ID Business Solutions).
Human Axl (residues H473-A894 with Q764R, 161 nM) was incubated with 8 mM MOPS pH 7.0, 0.2 mM EDTA, 250 μM KKSRGDYMTMQIG, 10 mM magnesium acetate, and 10 μM [y-^33P-ATP]. The reaction was initiated by the addition of the Mg/ATP mix. After incubation for 40 minutes at room temperature, the reaction was stopped by the addition of phosphoric acid to a concentration of 0.5%. A reaction aliquot of 10 μL was then spotted onto a P30 filtermat and washed four times for 4 minutes in 0.425% phosphoric acid and once in methanol prior to drying and scintillation counting. Incorporated ^33P was measured using the Wallac Microbeta scintillation counter (Perkin Elmer).

KDR = KDR (Homo sapiens, UniProt P35968); assay: KDR autophosphorylation ELISA in HUVEC cells; type: cell-based; design: endogenous in cells; host or cells: HUVEC (Lonza #C2519A); conditions: cellular activity, VEGF165-stimulated, phospho-KDR ELISA
Chain of KDR (P35968 20-1356): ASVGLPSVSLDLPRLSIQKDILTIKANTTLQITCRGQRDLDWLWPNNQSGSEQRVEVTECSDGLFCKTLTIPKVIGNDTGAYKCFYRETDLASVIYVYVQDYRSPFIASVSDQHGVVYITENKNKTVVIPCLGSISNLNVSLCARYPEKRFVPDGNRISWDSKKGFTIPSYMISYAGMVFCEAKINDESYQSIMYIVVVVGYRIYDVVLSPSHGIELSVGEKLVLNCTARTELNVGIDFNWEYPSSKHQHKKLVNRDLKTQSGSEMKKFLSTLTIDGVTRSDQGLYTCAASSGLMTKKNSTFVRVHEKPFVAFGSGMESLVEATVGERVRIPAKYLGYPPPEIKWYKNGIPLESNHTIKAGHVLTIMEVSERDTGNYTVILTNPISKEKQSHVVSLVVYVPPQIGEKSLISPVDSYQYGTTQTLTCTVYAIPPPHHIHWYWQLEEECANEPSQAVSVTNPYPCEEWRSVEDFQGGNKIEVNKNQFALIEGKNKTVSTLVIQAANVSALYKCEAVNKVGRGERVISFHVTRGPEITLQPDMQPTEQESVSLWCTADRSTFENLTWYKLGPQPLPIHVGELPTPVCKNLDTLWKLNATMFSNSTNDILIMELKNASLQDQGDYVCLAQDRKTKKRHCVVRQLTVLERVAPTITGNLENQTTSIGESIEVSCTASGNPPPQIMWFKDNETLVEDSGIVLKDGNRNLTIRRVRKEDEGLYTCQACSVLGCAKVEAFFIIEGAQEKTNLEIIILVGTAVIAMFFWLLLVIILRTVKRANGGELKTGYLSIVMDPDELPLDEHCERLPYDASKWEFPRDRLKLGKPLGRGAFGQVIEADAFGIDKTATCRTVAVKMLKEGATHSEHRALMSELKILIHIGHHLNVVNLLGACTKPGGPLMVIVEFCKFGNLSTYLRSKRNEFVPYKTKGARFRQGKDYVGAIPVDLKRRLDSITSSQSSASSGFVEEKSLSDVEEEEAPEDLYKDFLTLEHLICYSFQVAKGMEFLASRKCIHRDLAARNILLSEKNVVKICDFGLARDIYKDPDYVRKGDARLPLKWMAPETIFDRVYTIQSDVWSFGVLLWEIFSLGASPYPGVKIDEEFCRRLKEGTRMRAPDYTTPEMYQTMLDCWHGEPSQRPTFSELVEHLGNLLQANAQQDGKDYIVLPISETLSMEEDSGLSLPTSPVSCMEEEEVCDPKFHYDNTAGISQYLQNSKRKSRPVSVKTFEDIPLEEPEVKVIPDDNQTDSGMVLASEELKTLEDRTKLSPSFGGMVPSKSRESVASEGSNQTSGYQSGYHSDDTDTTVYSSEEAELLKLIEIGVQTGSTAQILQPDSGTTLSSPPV
Description: Human umbilical vein endothelial cells or HUVEC (Lonza #C2519A) were seeded at 2×10^4 cells/well onto 96-well plates (Corning #3904), in EGM-2 growth medium (Lonza #CC-3162) containing 1% Penicillin Streptomycin (Thermo Fisher #15140-122). HUVEC cells were incubated at 37° C., 5% CO2 for 24 h and then starved for 24 h in serum-free EBM-2 basal medium (Lonza #CC-3156) containing 1% Penicillin Streptomycin. Test compounds were serially diluted to produce an 8-point dose curve in fresh serum-free medium to a final concentration of 0.3% DMSO (vehicle) and added to the cells and incubated for 1 h. Cells were then stimulated with 100 ng/mL recombinant human VEGF165 (R&D Systems #293-VE-500) for 5 min, washed with cold PBS, and immediately lysed with 130 μL of cold 1× lysis buffer [20 mM Tris, 137 mM sodium chloride, 2 mM EDTA, 10% glycerol, 1% NP-40 alternative, 1 mM activated sodium orthovanadate, 1 mM PefaBloc SC (Sigma-Aldrich #11429868001), protease/phosphatase inhibitor tablet (Thermo Fisher #A32959)]. Lysates were collected and 100 μL/well added into the human phospho-KDR DuoSet IC ELISA (R&D Systems #DYC1766-2). Assay was performed according to manufacturer's instructions and sample phospho-KDR concentrations were extrapolated using human phospho-KDR control (R&D Systems #841421) as a standard. Positive control wells (100% activity) contained VEGF165-stimulated, DMSO-treated cell lysates. Negative control wells (0% activity) contained non-stimulated cell lysates. IC50 values were calculated by nonlinear regression analysis using a 4-parameter logistic curve fit in ActivityBase XE (IDBS).

Cn1nccc1-c1ccc2c(Oc3ccc(NC(=O)C4(C(=O)Nc5ccc(F)cc5)CC4)cc3)ccnc2c1 [Compound 54, 1-N′-(4-Fluorophenyl)-1-N-[4-[7-(2-methylpyrazol-3-yl)quinolin-4-yl]oxyphenyl]cyclopropane-1,1-dicarboxamide]
IC50 (Human Axl): 10 to 100 nM | IC50 (KDR): 10 to 100 nM

Cn1cc(-c2ccc3c(Oc4ccc(NC(=O)C5(C(=O)N6CCc7cc(F)ccc76)CC5)cc4)ccnc3c2)cn1 [Compound 81, 1-(5-Fluoro-2,3-dihydroindole-1-carbonyl)-N-[4-[7-(1-methylpyrazol-4-yl)quinolin-4-yl]oxyphenyl]cyclopropane-1-carboxamide]
IC50 (Human Axl): ≤ 10 nM | IC50 (KDR): > 300 nM

COc1cc2c(Oc3ccc(NC(=O)C4(C(=O)Nc5ccc(F)cc5)CC4)cc3)ccnc2cc1-c1cnn(C)c1 [Compound 76, 1-N′-(4-Fluorophenyl)-1-N-[4-[6-methoxy-7-(1-methylpyrazol-4-yl)quinolin-4-yl]oxyphenyl]cyclopropane-1,1-dicarboxamide]
IC50 (Human Axl): ≤ 10 nM | IC50 (KDR): 10 to 100 nM

O=C(Nc1ccc(F)cc1)C1(C(=O)Nc2ccc(Oc3ccnc4cc(-c5cnn(C(F)F)c5)ccc34)cc2)CC1 [Compound 13, 1-N-[4-[7-[1-(Difluoromethyl)pyrazol-4-yl]quinolin-4-yl]oxyphenyl]-1-N′-(4-fluorophenyl)cyclopropane-1,1-dicarboxamide]
IC50 (Human Axl): 10 to 100 nM | IC50 (KDR): ≤ 10 nM

O=C(Nc1ccc(F)cc1)C1(C(=O)Nc2ccc(Oc3ccnc4cc(-c5ccncc5)ccc34)cc2)CC1 [Compound 26, 1-N′-(4-Fluorophenyl)-1-N-[4-(7-pyridin-4-ylquinolin-4-yl)oxyphenyl]cyclopropane-1,1-dicarboxamide]
IC50 (Human Axl): 10 to 100 nM | IC50 (KDR): ≤ 10 nM

O=C(Nc1ccc(F)cc1)C1(C(=O)Nc2ccc(Oc3ccnc4cc(C5CCNC5)ccc34)cc2)CC1 (centres unmarked) [Compound 83, 1-N′-(4-Fluorophenyl)-1-N-[4-(7-pyrrolidin-3-ylquinolin-4-yl)oxyphenyl]cyclopropane-1,1-dicarboxamide]
IC50 (Human Axl): 10 to 100 nM | IC50 (KDR): 100 to 300 nM

CC1Cc2cc(F)ccc2N1C(=O)C1(C(=O)Nc2ccc(Oc3ccnc4cc(-c5cnn(C)c5)ccc34)cc2)CC1 (centres unmarked) [Compound 80, 1-(5-Fluoro-2-methyl-2,3-dihydroindole-1-carbonyl)-N-[4-[7-(1-methylpyrazol-4-yl)quinolin-4-yl]oxyphenyl]cyclopropane-1-carboxamide]
IC50 (Human Axl): 10 to 100 nM | IC50 (KDR): > 300 nM

O=C(Nc1ccc(F)cc1)C1(C(=O)Nc2ccc(Oc3ccnc4cc(-c5ncc[nH]5)ccc34)cc2)CC1 [Compound 74, 1-N′-(4-Fluorophenyl)-1-N-[4-[7-(1H-imidazol-2-yl)quinolin-4-yl]oxyphenyl]cyclopropane-1,1-dicarboxamide]
IC50 (Human Axl): ≤ 10 nM | IC50 (KDR): ≤ 10 nM

O=C(Nc1ccc(F)cc1)C1(C(=O)Nc2ccc(Oc3ccnc4cc(-c5cc6n(n5)CCC6)ccc34)cc2)CC1 [Compound 124, 1-N-[4-[7-(5,6-Dihydro-4H-pyrrolo[1,2-b]pyrazol-2-yl)quinolin-4-yl]oxyphenyl]-1-N′-(4-fluorophenyl)cyclopropane-1,1-dicarboxamide]
IC50 (KDR): 10 to 100 nM

O=C(Nc1ccc(F)cc1)C1(C(=O)Nc2ccc(Oc3ccnc4cc(-c5ccc(O)nc5)ccc34)cc2)CC1 [Compound 51, 1-N′-(4-Fluorophenyl)-1-N-[4-[7-(6-hydroxypyridin-3-yl)quinolin-4-yl]oxyphenyl]cyclopropane-1,1-dicarboxamide]
IC50 (KDR): ≤ 10 nM

Cc1cncc(-c2ccc3c(Oc4ccc(NC(=O)C5(C(=O)Nc6ccc(F)cc6)CC5)cc4)ccnc3c2)c1 [Compound 46, 1-N′-(4-Fluorophenyl)-1-N-[4-[7-(5-methylpyridin-3-yl)quinolin-4-yl]oxyphenyl]cyclopropane-1,1-dicarboxamide]
IC50 (KDR): 10 to 100 nM

Cc1cc2c(Oc3c(F)cc(NC(=O)C4(C(=O)Nc5ccc(F)cc5)CC4)c(F)c3F)ccnc2cc1-c1cnn(C)c1 [Compound 110, 1-N-(4-Fluorophenyl)-1-N′-[2,3,5-trifluoro-4-[6-methyl-7-(1-methylpyrazol-4-yl)quinolin-4-yl]oxyphenyl]cyclopropane-1,1-dicarboxamide]
IC50 (KDR): 100 to 300 nM
